The source of these data is patent publication US7732622B2, “Naphthalene derivatives” (Glaxo Group Limited, priority 2001, dated 2010).

The target of the first test is T1, human EP4 receptor (Homo sapiens, UniProt P35408).
T1 construct: expressed in transfected cells; host or cells: CHO cells infected with recombinant Semliki Forest Virus (SFV-1) particles; membranes prepared
T1 sequence (P35408 whole entry): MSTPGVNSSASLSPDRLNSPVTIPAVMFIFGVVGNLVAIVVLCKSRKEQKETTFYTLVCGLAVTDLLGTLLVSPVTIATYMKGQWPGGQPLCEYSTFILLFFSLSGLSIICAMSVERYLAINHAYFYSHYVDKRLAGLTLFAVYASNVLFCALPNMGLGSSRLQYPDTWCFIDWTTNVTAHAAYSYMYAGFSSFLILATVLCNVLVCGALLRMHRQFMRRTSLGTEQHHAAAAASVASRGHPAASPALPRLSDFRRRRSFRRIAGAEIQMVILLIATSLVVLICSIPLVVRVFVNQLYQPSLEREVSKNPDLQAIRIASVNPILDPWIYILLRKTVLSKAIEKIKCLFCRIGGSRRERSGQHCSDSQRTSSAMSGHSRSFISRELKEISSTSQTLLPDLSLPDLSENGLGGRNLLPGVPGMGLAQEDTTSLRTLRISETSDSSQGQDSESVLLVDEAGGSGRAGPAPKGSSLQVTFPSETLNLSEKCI
Put plainly: Human EP4 Scintillation Proximity Assay (radioligand binding).
Conditions: not given
How it is done: Quantification of radioligand binding by scintillation proximity assay (SPA) is a long-established principle. Briefly, the affinity of novel compounds for a receptor is assessed by the specific competition between known quantities of radiolabelled ligand and novel compound for that receptor. Increasing concentrations of novel compound reduce the amount of radiolabel that binds to the receptor. This gives rise to a diminishing scintillation signal from SPA beads coated with membranes that bear the receptor. The signal may be detected with a suitable scintillation counter and the data generated may be analysed with suitable curve-fitting software.
The human EP4 SPA assay (hereafter referred to as ‘the assay’) utilises membranes prepared from Chinese Hamster Ovary (CHO cells) infected with Semliki Forest Virus (SFV). Genetically engineered SFV-1 viral particles containing the genetic sequence of the human EP4 receptor were used to infect CHO cells resulting in expression of the receptor protein in cellular membranes. Cells washed free of media are homogenised in a pH-buffered medium containing peptidase inhibitors. A suitable buffer is of the following composition: 50 mM HEPES, 1 mM EDTA, 25 μg/ml bacitracin, 100 μM leupeptin, 1 mM PMSF, 2 μM Pepstatin A, pH adjusted to 7.4 with KOH. Following removal of cell debris by a low-speed centrifugation, a pellet of membranes is prepared by a high-speed (48000 g) centrifugation of the resulting supernatant. Membrane suspensions such as that described may be stored at −80° C. until used.
For assay, membranes expressing human EP4 receptors are diluted in a pH-buffered medium and mixed with SPA beads coated with a suitable substance to facilitate the adhesion of membranes to the beads. The concentrations of membrane protein and SPA beads chosen should result in SPA binding signal of at least 300 corrected counts per minute (CCPM) when tritiated radioligand at a concentration close to its Kd (affinity value) is combined with the mixture. Non-specific binding (nsb) may be determined by competition between the radiolabelled ligand and a saturating concentration of unlabelled ligand. In order to quantify the affinity of novel EP4 receptor ligands, compounds are diluted in a stepwise manner across the wells of a 96-well plate. Radioligand, novel compound, and unlabelled ligand are then added to a 96-well plate suitable for the measurement of SPA binding signals prior to the addition of bead/membrane mixture to initiate the binding reaction. Equilibrium may be achieved by incubation at room temperature for 120 minutes prior to scintillation counting. The data so generated may be analysed by means of a computerised curve-fitting routine in order to quantify the concentration of compound that displaces 50% of the specific radioligand binding (IC50). The affinity (pKi) of the novel compound may be calculated from the IC50 by application of the Cheng-Prusoff correction. Suitable reagents and protocols are: reaction buffer containing 50 mM HEPES, 10 mM MgCl2, pH adjusted to 7.4 with KOH; SPA beads coated with wheatgerm agglutinin; 1.25 nM [^3H]-prostaglandin E2 as radioligand; 10 μM prostaglandin E2 as unlabelled ligand; a three-fold dilution series of novel compound starting at 10 μM and ending at 0.3 nM is adequate.
Background: SPA uses beads or plates that emit light when radiolabelled molecules are held near them.
As for `CC(C)Oc1c2c(c(OC(C)C)c3ccccc13)C(=O)N(c1ccc(CC(=O)O)cc1)C2` [Example 4, [4-(4,9-Di-isopropoxy-1-oxo-1,3-dihydro-2H-benzo[f]isoindol-2-yl)phenyl]acetic acid], the Ki is at most 1000 nM.

Turning to `CCCOc1c2c(c(OCCC)c3ccccc13)C(=O)N(c1ccc(CC(=O)O)cc1)C2` [Example 5, [4-(4,9-Dipropoxy-1-oxo-1,3-dihydro-2H-benzo[f]isoindol-2-yl)phenyl]acetic acid], the Ki was at most 1000 nM.

Consider `CCOc1c2c(c(OCC)c3ccccc13)C(=O)N(c1ccc(CC(=O)O)cc1)C2=O` [Example 12, [4-(4,9-Diethoxy-1,3-dioxo-1,3-dihydro-2H-benzo[f]isoindol-2-yl)phenyl]acetic acid], for which the Ki is at most 1000 nM.

The test is the same for the next values; noted with them: SPA, membranes of CHO cells expressing human EP4 receptor, 1.25 nM [3H]-prostaglandin E2 as radioligand; pKi from IC50 by Cheng-Prusoff correction; read-out: pKi at EP4 receptors (converted).
For the compound `COc1c2c(c(OC)c3ccccc13)C(=O)N(c1ccc(CC(=O)O)cc1)C2` [Example 1, [4-(4,9-Dimethoxy-1-oxo-1,3-dihydro-2H-benzo[f]isoindol-2-yl)phenyl]acetic acid], the Ki was at most 1000 nM.

`CC(C)Oc1c2c(c(OC(C)C)c3ccccc13)C(=O)N(c1ccc(CC(=O)O)cc1)C2=O` [Example 13, [4-(4,9-Di-isopropoxy-1,3-dioxo-1,3-dihydro-2H-benzo[f]isoindol-2-yl)phenyl]acetic acid]: the Ki was at most 1000 nM.

With `CCCOc1c2c(c(OCCC)c3ccccc13)C(=O)N(c1ccc(CC(=O)O)cc1)C2=O` [Example 14, [4-(4,9-Dipropoxy-1,3-dioxo-1,3-dihydro-2H-benzo[f]isoindol-2-yl)phenyl]acetic acid], the Ki is at most 1000 nM.

Consider `CCOc1c2c(c(OC(C)C)c3ccccc13)C(=O)N(c1ccc(CC(=O)O)cc1)C2=O` [Example 17, [4-(4-Ethoxy-9-isopropoxy-1,3-dioxo-1,3-dihydro-2H-benzo[f]isoindol-2-yl)phenyl]acetic acid], for which the Ki is at most 1000 nM.
